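Five concentrations, 48 hours, 96-well plates. TGI is the concentration that stops growth completely.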
Columns and labels:
Experiment in all cases: NCI-60 cell line screen, 48 h
SNB-78 CNS = test system: SNB-78 CNS
SN12C renal = test system: SN12C renal
NCI-H23 lung = test system: NCI-H23 lung
OVCAR-4 ovarian = test system: OVCAR-4 ovarian
COLO 205 colon = test system: COLO 205 colon
IGROV1 ovarian = test system: IGROV1 ovarian
HL-60(TB) leukemia = test system: HL-60(TB) leukemia
HCT-15 colon = test system: HCT-15 colon
K-562 leukemia = test system: K-562 leukemia
A498 renal = test system: A498 renal
786-0 renal = test system: 786-0 renal
NCI-H522 lung = test system: NCI-H522 lung
HOP-18 NSCLC = test system: HOP-18 NSCLC
HOP-92 NSCLC = test system: HOP-92 NSCLC
KM20L2 colon = test system: KM20L2 colon
A549 NSCLC = test system: A549 NSCLC
SK-MEL-2 melanoma = test system: SK-MEL-2 melanoma
EKVX NSCLC = test system: EKVX NSCLC
CCRF-CEM leukemia = test system: CCRF-CEM leukemia
RXF 393 renal = test system: RXF 393 renal
UACC-257 melanoma = test system: UACC-257 melanoma
ACHN renal = test system: ACHN renal
SK-OV-3 ovarian = test system: SK-OV-3 ovarian
OVCAR-8 ovarian = test system: OVCAR-8 ovarian
LOX IMVI melanoma = test system: LOX IMVI melanoma
DMS 114 small cell lung = test system: DMS 114 small cell lung
HCT-116 colon = test system: HCT-116 colon
M19-MEL melanoma = test system: M19-MEL melanoma
SNB-19 CNS = test system: SNB-19 CNS
SF-268 CNS = test system: SF-268 CNS
SNB-75 CNS = test system: SNB-75 CNS
MOLT-4 leukemia = test system: MOLT-4 leukemia
CAKI-1 renal = test system: CAKI-1 renal
SF-539 CNS = test system: SF-539 CNS
OVCAR-3 ovarian = test system: OVCAR-3 ovarian
XF 498 CNS = test system: XF 498 CNS
DMS 273 small cell lung = test system: DMS 273 small cell lung
UO-31 renal = test system: UO-31 renal
NCI-H460 lung = test system: NCI-H460 lung
M14 melanoma = test system: M14 melanoma
SW-620 colon = test system: SW-620 colon
TK-10 renal = test system: TK-10 renal
RPMI-8226 leukemia = test system: RPMI-8226 leukemia
SF-295 CNS = test system: SF-295 CNS
DLD-1 colon = test system: DLD-1 colon
NCI-H226 lung = test system: NCI-H226 lung
KM12 colon = test system: KM12 colon
U251 CNS = test system: U251 CNS
SK-MEL-5 melanoma = test system: SK-MEL-5 melanoma
LXFL 529 NSCLC = test system: LXFL 529 NSCLC
MALME-3M melanoma = test system: MALME-3M melanoma
HOP-62 NSCLC = test system: HOP-62 NSCLC
SK-MEL-28 melanoma = test system: SK-MEL-28 melanoma
RXF-631 renal = test system: RXF-631 renal
UACC-62 melanoma = test system: UACC-62 melanoma
OVCAR-5 ovarian = test system: OVCAR-5 ovarian
HCC-2998 colon = test system: HCC-2998 colon
HT29 colon = test system: HT29 colon
SR leukemia = test system: SR leukemia

`CNC1=C(C)C(=O)C(C)=C(C(C)(C)CC(=O)n2cc(F)c(=O)[nH]c2=O)C1=O` gave a TGI (SNB-78 CNS) greater than 100 µM, a TGI (SN12C renal) greater than 100 µM and a TGI (NCI-H23 lung) greater than 100 µM. For the same molecule, the TGI (OVCAR-4 ovarian) was greater than 100 µM, the TGI (COLO 205 colon) was greater than 100 µM and the TGI (IGROV1 ovarian) was greater than 100 µM. The TGI (HL-60(TB) leukemia) was greater than 100 µM, the TGI (HCT-15 colon) was greater than 100 µM and the TGI (K-562 leukemia) was greater than 100 µM. The TGI (A498 renal) was greater than 100 µM, the TGI (786-0 renal) was greater than 100 µM and the TGI (NCI-H522 lung) was greater than 100 µM. The TGI (HOP-18 NSCLC) was greater than 100 µM, the TGI (HOP-92 NSCLC) was greater than 100 µM and the TGI (KM20L2 colon) was greater than 100 µM. It also gave a TGI (A549 NSCLC) greater than 100 µM, a TGI (SK-MEL-2 melanoma) greater than 100 µM and a TGI (EKVX NSCLC) greater than 100 µM. The TGI (CCRF-CEM leukemia) was greater than 100 µM, the TGI (RXF 393 renal) was greater than 100 µM and the TGI (UACC-257 melanoma) was greater than 100 µM. It also gave a TGI (ACHN renal) greater than 100 µM, a TGI (SK-OV-3 ovarian) greater than 100 µM and a TGI (OVCAR-8 ovarian) greater than 100 µM. The TGI (LOX IMVI melanoma) was greater than 100 µM, the TGI (DMS 114 small cell lung) was greater than 100 µM and the TGI (HCT-116 colon) was greater than 100 µM. For the same molecule, the TGI (M19-MEL melanoma) was greater than 100 µM, the TGI (SNB-19 CNS) was greater than 100 µM and the TGI (SF-268 CNS) was greater than 100 µM. It also gave a TGI (SNB-75 CNS) greater than 100 µM, a TGI (MOLT-4 leukemia) greater than 100 µM and a TGI (CAKI-1 renal) greater than 100 µM. It also gave a TGI (SF-539 CNS) greater than 100 µM, a TGI (OVCAR-3 ovarian) greater than 100 µM and a TGI (XF 498 CNS) greater than 100 µM. It also gave a TGI (DMS 273 small cell lung) greater than 100 µM, a TGI (UO-31 renal) greater than 100 µM and a TGI (NCI-H460 lung) greater than 100 µM. For the same molecule, the TGI (M14 melanoma) was greater than 100 µM, the TGI (SW-620 colon) was greater than 100 µM and the TGI (TK-10 renal) was greater than 100 µM. For the same molecule, the TGI (RPMI-8226 leukemia) was greater than 100 µM, the TGI (SF-295 CNS) was greater than 100 µM and the TGI (DLD-1 colon) was greater than 100 µM. It also gave a TGI (NCI-H226 lung) greater than 100 µM, a TGI (KM12 colon) greater than 100 µM and a TGI (U251 CNS) greater than 100 µM. For the same molecule, the TGI (SK-MEL-5 melanoma) was greater than 100 µM, the TGI (LXFL 529 NSCLC) was greater than 100 µM and the TGI (MALME-3M melanoma) was greater than 100 µM. For the same molecule, the TGI (HOP-62 NSCLC) was greater than 53.8 µM, the TGI (SK-MEL-28 melanoma) was greater than 100 µM and the TGI (RXF-631 renal) was greater than 100 µM. For the same molecule, the TGI (UACC-62 melanoma) was greater than 100 µM, the TGI (OVCAR-5 ovarian) was greater than 100 µM and the TGI (HCC-2998 colon) was greater than 100 µM. The TGI (HT29 colon) was greater than 100 µM.

Work on `Cn1c(=O)c(C(c2ccccc2)c2c(O)c3ccccc3n(C)c2=O)c(O)c2ccccc21` yielded a TGI (SNB-78 CNS) greater than 100 µM, a TGI (SN12C renal) greater than 100 µM and a TGI (NCI-H23 lung) greater than 100 µM. The TGI (OVCAR-4 ovarian) was greater than 100 µM, the TGI (COLO 205 colon) was greater than 100 µM and the TGI (IGROV1 ovarian) was greater than 100 µM. For the same molecule, the TGI (HL-60(TB) leukemia) was greater than 100 µM, the TGI (K-562 leukemia) was greater than 100 µM and the TGI (786-0 renal) was greater than 100 µM. For the same molecule, the TGI (NCI-H522 lung) was greater than 100 µM, the TGI (HOP-18 NSCLC) was greater than 100 µM and the TGI (HOP-92 NSCLC) was greater than 100 µM. It also gave a TGI (KM20L2 colon) greater than 100 µM, a TGI (A549 NSCLC) greater than 100 µM and a TGI (SK-MEL-2 melanoma) greater than 100 µM. It also gave a TGI (EKVX NSCLC) greater than 100 µM, a TGI (RXF 393 renal) greater than 100 µM and a TGI (UACC-257 melanoma) greater than 100 µM. The TGI (ACHN renal) was greater than 100 µM, the TGI (SK-OV-3 ovarian) was greater than 100 µM and the TGI (OVCAR-8 ovarian) was greater than 100 µM. For the same molecule, the TGI (LOX IMVI melanoma) was greater than 100 µM, the TGI (DMS 114 small cell lung) was greater than 100 µM and the TGI (HCT-116 colon) was greater than 100 µM. The TGI (M19-MEL melanoma) was greater than 100 µM, the TGI (SNB-19 CNS) was greater than 100 µM and the TGI (SF-268 CNS) was greater than 100 µM. The TGI (SNB-75 CNS) was greater than 100 µM, the TGI (MOLT-4 leukemia) was greater than 100 µM and the TGI (CAKI-1 renal) was greater than 100 µM. For the same molecule, the TGI (SF-539 CNS) was greater than 100 µM, the TGI (OVCAR-3 ovarian) was greater than 100 µM and the TGI (XF 498 CNS) was greater than 100 µM. It also gave a TGI (DMS 273 small cell lung) greater than 100 µM, a TGI (UO-31 renal) greater than 100 µM and a TGI (NCI-H460 lung) greater than 100 µM. The TGI (M14 melanoma) was greater than 100 µM, the TGI (SW-620 colon) was greater than 100 µM and the TGI (TK-10 renal) was greater than 100 µM. The TGI (RPMI-8226 leukemia) was greater than 100 µM, the TGI (SF-295 CNS) was greater than 100 µM and the TGI (DLD-1 colon) was greater than 100 µM. The TGI (NCI-H226 lung) was 65.9 µM, the TGI (KM12 colon) was greater than 100 µM and the TGI (U251 CNS) was greater than 100 µM. For the same molecule, the TGI (SK-MEL-5 melanoma) was greater than 100 µM, the TGI (LXFL 529 NSCLC) was greater than 100 µM and the TGI (MALME-3M melanoma) was greater than 100 µM. For the same molecule, the TGI (SK-MEL-28 melanoma) was greater than 100 µM, the TGI (RXF-631 renal) was greater than 100 µM and the TGI (UACC-62 melanoma) was greater than 100 µM. The TGI (OVCAR-5 ovarian) was 93.1 µM, the TGI (SR leukemia) was greater than 100 µM and the TGI (HCC-2998 colon) was greater than 100 µM. The TGI (HT29 colon) was greater than 100 µM.

From PubChem BioAssay (NCI)
